In patent publication US20230065562A1, “DUAL CONTROLS FOR THERAPEUTIC CELL ACTIVATION OR ELIMINATION” (Bellicum Pharmaceuticals, Inc., priority 2015, published 2023):

What was measured:
Assay type in all cases: cell-based, human
[1] = test system: T cells expressing ΔC9 alone (pBP1501); assay: T cell killing assay with caspase 3/7 green reagent monitored by IncuCyte, negative control ΔC9; details: increasing doses, FIG. 108B
From the text: To determine the functionality of these switches in activated T cells, retroviral supernatants were produced and transduced into PBMCs activated from 3 separate donors.

transduced T cells = assay: T cell caspase assay (IncuCyte, caspase 3/7 green reagent)
Protocol: To enable detection of apoptosis using the IncuCyte instrument, 2 μM of IncuCyte™ Kinetic Caspase-3/7 Apoptosis reagent (Essen Bioscience, 4440) were add to each well to reach a total volume of 200 μl. The plates were centrifuged for 5 min at 400×g and placed inside the IncuCyte (Dual Color Model 4459) to monitor green fluorescence every 2-3 hours for a total of 48 hours at 10× objective. Image analysis was performed using the “Tcells_caspreagent_phase_green_10×_MLD” processing definition. The “Total Green Object Integrated Intensity” metric is used to quantify caspase activation. Each condition was performed in duplicates and each well was imaged at 4 different locations.
To enable detection of apoptosis using the IncuCyte instrument, 2 μM of IncuCyte™ Kinetic Caspase-3/7 Apoptosis reagent (Essen Bioscience, 4440) was added to each well to reach a total volume of 200 μl. The plates were centrifuged for 5 min at 400×g and placed inside the IncuCyte (Dual Color Model 4459) to monitor green fluorescence every 2-3 hours for a total of 48 hours at 10× objective. Image analysis was performed using the “Tcells_caspreagent_phase_green_10×_MLD” processing definition. The “Total Green Object Integrated Intensity” metric and the “Phase Object Confluence (Percent)” were used to quantify caspase activation. Each condition was performed in duplicate and each well was imaged at 4 different locations.

[2] = test system: iCasp9M.IRES.IL-12-transduced EBV-CTLs; assay: IL-12 ELISA of iCasp9M.I.IL-12-transduced EBV-CTL supernatant; details: 10 nM CID; detection limit 7.8 pg/mL
Protocol: The concentration of interferon-[…] (IFN-[…]), IL-2, IL-4, IL-5, IL-10, and tumor necrosis factor-[…] (TNF[…]) in CTL culture supernatants was measured using the Human Th1/Th2 cytokine cytometric Bead Array (BD Pharmingen) and the concentration of IL-12 in the culture supernatants was measured by enzyme-linked immunosorbent assay (ELISA; R&D Systems, Minneapolis, Minn.) according to the instructions of the manufacturer.
To determine whether iCasp9M could effectively destroy cells genetically modified to express an active transgene product, the ability of iCasp9M to eliminate EBV-CTLs stably expressing IL-12 was measured. While IL-12 was undetectable in the supernatant of nontransduced and iCasp9M.IRES.GFP-transduced CTLs, the supernatant of iCasp9M.IRES.IL-12-transduced cells contained 324 pg/mL to 762 pg/mL IL-12. After administration of 10 nM CID, however, the IL-12 in the supernatant fell to undetectable levels (<7.8 pg/mL). Thus, even without prior sorting for high transgene expressing cells, activation of iCasp9M is sufficient to completely eliminate all T cells producing biologically relevant levels of IL-12. […] Three days after a second antigenic stimulation, the levels of IL-12 in the culture supernatant were measured by IL-12 ELISA (detection limit of this assay is 7.8 pg/mL). […]

[3] = test system: iCasp9-transduced, CD19-selected allodepleted T cells; assay: Induction of apoptosis with AP20187 in gene-modified allodepleted T cells (annexin V/7-AAD)
Protocol: Suicide gene functionality was assessed by adding a small molecule synthetic homodimerizer, AP20187 (Ariad Pharmaceuticals; Cambridge, Mass.), at 10 nM final concentration the day following CD19 immunomagnetic selection. Cells were stained with annexin V and 7-amino-actinomycin (7-AAD)(BD Pharmingen) at 24 hours and analyzed by flow cytometry. Cells negative for both annexin V and 7-AAD were considered viable, cells that were annexin V positive were apoptotic, and cells that were both annexin V and 7-AAD positive were necrotic. The percentage killing induced by dimerization was corrected for baseline viability as follows: Percentage killing=100%−(% Viability in AP20187-treated cells÷% Viability in nontreated cells).
Cells were maintained in T cell medium containing 50 U/ml IL-2 until 22 days after transduction. A portion of cells was reactivated on 24-well plates coated with […] OKT3 and 1 µg/ml anti-CD28 (Clone CD28.2, BD Pharmingen, San Jose, Calif.) for 48 to 72 hours. CD19 expression and suicide gene function in both reactivated and non-reactivated cells were measured on day 24 or 25 post transduction.
The day following immunomagnetic selection, 10 nM of the chemical inducer of dimerization, AP20187, was added to induce apoptosis, which appeared within 24 hours. […] Killing efficiency after correction for baseline viability was about 92.9%±3.8%. Large-scale CD19 selection produced cells that were killed with similar efficiency as small-scale selection: mean viability with and without AP20187, and percentage killing, in large and small scale were about 3.9%, about 84.0%, about 95.4% (n=3) and about 6.6%, about 79.3%, about 91.4% (n=5) respectively. AP20187 was non-toxic to non-transduced cells: viability with and without AP20187 was about 86%±9% and 87%±8% respectively (n=6).
To assess the stability of transgene expression and function, cells were maintained in T cell culture medium and low dose IL-2 (50 U/ml) until 24 days after transduction. A portion of cells was then reactivated with OKT3/anti-CD28. CD19 expression was analyzed by flow cytometry 48 to 72 hours later, and suicide gene function was assessed by treatment with 10 nM AP20187. The obtained are for cells from day 5 post transduction (ie, 1 day after CD 19 selection) and day 24 post transduction, with or without 48-72 hours of reactivation (5 experiments). In 2 experiments, CD25 selection was performed after OKT3/αCD28 activation to further enrich activated cells. Error bars represent standard deviation. * indicates p<0.05 when compared to cells from day 5 post transduction. By day 24, surface CD19 expression fell from about 98%±1% to about 88%±4% (p<0.05) with a parallel decrease in mean fluorescence intensity (MFI) from 793±128 to 478±107 (p<0.05) (see FIG. 13B). Similarly, there was a significant reduction in suicide gene function: residual viability was 19.6±5.6% following treatment with AP20187; after correction for baseline viability of 54.8±20.9%, this equated to killing efficiency of only 63.1±6.2%.

[4] = 10 nM AP20187, day after CD19 selection
[5] = day 24 post transduction, non-reactivated
[6] = large-scale CD19 selection (n=3)
[7] = small-scale CD19 selection (n=5)

SMILES	activity of negative control ΔC9 alone (pBP1501) in T cells [1]	dimerization/activation of FKBP.FRB.Δcasp9 (iRC9) (transduced T cells; 20 nM rimiducid)	concentration at which iC9 was observed to be activated (transduced T cells; MC-Rap + CAR + iC9 constructs) [µM]	IL-12 in the supernatant after CID [2] [pg/mL]	killing efficiency after correction for baseline viability [3, 4]	viable cells (annexin V and 7-AAD negative) at 24 hours [3, 4]	killing ([3]; CD25 negative fraction after reactivation) [%]	killing efficiency ([3]; OKT3/αCD28-reactivated cells, day 24 or 25)	killing efficiency ([3]; day 5 post transduction) [%]	killing efficiency [3, 5] [%]	residual viability following AP20187 [3, 5] [%]	apoptosis after treatment with dimerizer ([3]; iCasp9-modified donor T cells) [%]	mean viability with AP20187 [3, 6]	percentage killing [3, 6]	mean viability with AP20187 [3, 7]	percentage killing [3, 7]
CC[C@H](C(=O)N1CCCC[C@H]1C(=O)O[C@H](CCc1ccc(OC)c(OC)c1)c1cccc(OCC(=O)NCCNC(=O)COc2cccc([C@@H](CCc3ccc(OC)c(OC)c3)OC(=O)[C@@H]3CCCCN3C(=O)[C@@H](CC)c3cc(OC)c(OC)c(OC)c3)c2)c1)c1cc(OC)c(OC)c(OC)c1 [rimiducid]	not active	unable to induce dimerization	< 100	–	–	–	–	–	–	–	–	–	–	–	–	–
CC[C@H](C(=O)N1CCCC[C@H]1C(=O)O[C@H](CCc1ccc(OC)c(OC)c1)c1cccc(OCC(=O)NCC(CNC(=O)COc2cccc([C@@H](CCc3ccc(OC)c(OC)c3)OC(=O)[C@@H]3CCCCN3C(=O)[C@@H](CC)c3cc(OC)c(OC)c(OC)c3)c2)CN(C)C)c1)c1cc(OC)c(OC)c(OC)c1 [AP20187]	–	–	–	< 7.8	about 92.9%±3.8	about 5.5%±2.5	78.6±9.1	~84.6%±8.0	93.1±3.5	63.1±6.2	19.6±5.6	> 90	about 3.9%	about 95.4%	about 6.6%	about 91.4%
